Here are results for 24 molecules from patent US10202378B2, “Therapeutic compounds and uses thereof” (GENENTECH, INC., priority 2015, dated 2019).

For assay [1], the target named is TAF1-BD1 (Homo sapiens, UniProt P21675). The assay can be described thus: TAF1-BD1 TR-FRET Binding Assay. Conditions: read-out: TAF1-BD1 HTRF IC50. The procedure:
IC50 Measurements for Inhibitors Using TAF1-BD1 TR-FRET Binding Assay
His/Flag epitope tagged TAF1-BD11381-1497 was cloned, expressed, and purified to homogeneity. TAF1-BD binding and inhibition was assessed by monitoring the engagement of a biotinylated small molecule compound 1000 with the target using the TR-FRET assay technology (Perkin-Elmer). Specifically, in a 384 well ProxiPlate, TAF1-BDI (0.08 uM final) in 50 mM HEPES (pH 7.5; final), 50 mM NaCl (final), 1 mM TCEP (final), 0.1 mg/mL BSA (final), and 0.069 mM Brij-35 (final) was added either in the presence of DMSO (final 0.2% DMSO) or compound dilution series in DMSO. After a 10 minute incubation at room temperature, biotin-ligand (0.08 uM final) was added. After 10 minutes incubation at room temperature, a mixture Eu-W1024 Anti-6×His antibody (Perkin Elmer ADO 110) and SureLight™ Streptavidin-Allophycocyanin (SA-APC, Perkin Elmer CR130-100) were added to final concentrations of 0.2 nM antibody and 0.05 uM SA-APC, respectively. After forty minutes of equilibration at room temperature, the plates were read on an Envision instrument and IC50s calculated using a four parameter logistic model (XLFIT).

Assay [2] has as its target TAF1-BD2 (Homo sapiens, UniProt P21675). The assay can be described thus: TAF1-BD2 TR-FRET Binding Assay. Conditions: read-out: TAF1-BD2 HTRF IC50. The procedure: IC50 Measurements for Inhibitors Using TAF1-BD2 TR-FRET Binding Assay
His/Flag epitope tagged TAF1-BD21504-1635 was cloned, expressed, and purified to homogeneity. TAF1-BD2 binding and inhibition was assessed by monitoring the engagement of a biotinylated small molecule compound 1000 with the target using the TR-FRET assay technology (Perkin-Elmer). Specifically, in a 384 well ProxiPlate, TAF1-BD2 (0.012 uM final) in 50 mM HEPES (pH 7.5; final), 50 mM NaCl (final), 1 mM TCEP (final), 0.1 mg/mL BSA (final), and 0.069 mM Brij-35 (final) was added either in the presence of DMSO (final 0.2% DMSO) or compound dilution series in DMSO. After a 10 minute incubation at room temperature, biotin-ligand (0.04 uM final) was added. After 10 minutes incubation at room temperature, a mixture Eu-W1024 Anti-6×His antibody (Perkin Elmer AD0110) and SureLight™ Streptavidin-Allophycocyanin (SA-APC, Perkin Elmer CR130-100) were added to a final concentration of 0.2 nM antibody and 0.025 uM SA-APC, respectively. After forty minutes of equilibration at room temperature, the plates were read on an Envision instrument and IC50s calculated using a four parameter logistic model (XLFIT).
(In general: In TR-FRET formats the signal depends on donor and acceptor labels being close together.)

For the molecule `CCOC(=O)c1c(C)[nH]c2c(=O)n(C)cc(C#CC3(C)COC3)c12` [Example 13, ethyl 2,6-dimethyl-4-[2-(3-methyloxetan-3-yl)ethynyl]-7-oxo-1H-pyrrolo[2,3-c]pyridine-3-carboxylate], the figures for the IC50 in assay [1] and in assay [2] were 434 nM and 379 nM, respectively.

Regarding `CCOC(=O)c1c(C)[nH]c2c(=O)n(C)cc(C#CC(C)(C)CO)c12` [Example 15, ethyl 4-(4-hydroxy-3,3-dimethyl-but-1-ynyl)-2,6-dimethyl-7-oxo-1H-pyrrolo[2,3-c]pyridine-3-carboxylate], the IC50 worked out at 343 nM in assay [1] and 189 nM in assay [2].

As to `CCOC(=O)c1c(C)[nH]c2c(=O)n(C)cc(C#CC(C)(O)COc3ccccc3)c12` (stereo not drawn) [Example 17, ethyl 4-(3-hydroxy-3-methyl-4-phenoxy-but-1-ynyl)-2,6-dimethyl-7-oxo-1H-pyrrolo[2,3-c]pyridine-3-carboxylate], the IC50 in assay [1] was found to be 404 nM; in assay [2], 67.3 nM.

For the molecule `CCOC(=O)c1c(C)[nH]c2c(=O)n(C)cc(C#CC3(O)CC3)c12` [Example 18, ethyl 4-[2-(1-hydroxycyclopropyl)ethynyl]-2,6-dimethyl-7-oxo-1H-pyrrolo[2,3-c]pyridine-3-carboxylate], the IC50 is 632 nM in assay [1] and 85.4 nM in assay [2].

Consider `CCOC(=O)c1c(C)[nH]c2c(=O)n(C)cc(C#CC(C)(O)c3cccc(C#N)c3)c12` (stereo not drawn) [Example 19, ethyl 4-[3-(3-cyanophenyl)-3-hydroxy-but-1-ynyl]-2,6-dimethyl-7-oxo-1H-pyrrolo[2,3-c]pyridine-3-carboxylate], for which the IC50 in assay [1] stood at 146 nM; in assay [2], 30.3 nM.

As to `CCOC(=O)c1c(C)[nH]c2c(=O)n(C)cc(C#CC3(O)CCCC3)c12` [Example 20, ethyl 4-[2-(1-hydroxycyclopentyl)ethynyl]-2,6-dimethyl-7-oxo-1H-pyrrolo[2,3-c]pyridine-3-carboxylate], the figures for the IC50 in assay [1] and in assay [2] were 282 nM and 21.9 nM, respectively.

`CCOC(=O)c1c(C)[nH]c2c(=O)n(C)cc(C#CC3(O)CCC3)c12` [Example 21, ethyl 4-[2-(1-hydroxycyclobutyl)ethynyl]-2,6-dimethyl-7-oxo-1H-pyrrolo[2,3-c]pyridine-3-carboxylate]: the IC50 came to 407 nM in assay [1] and 61.1 nM in assay [2].

Turning to `CCOC(=O)c1c(C)[nH]c2c(=O)n(C)cc(C#CC(C)(C)NC(C)=O)c12` [Example 22, ethyl 4-(3-acetamido-3-methyl-but-1-ynyl)-2,6-dimethyl-7-oxo-1H-pyrrolo[2,3-c]pyridine-3-carboxylate], the IC50 came out at 804 nM in assay [1] and 523 nM in assay [2].

In the case of `CCOC(=O)c1c(C)[nH]c2c(=O)n(C)cc(C#CC(C)(O)CCc3ccccc3)c12` (stereo not drawn) [Example 23, ethyl 4-(3-hydroxy-3-methyl-5-phenyl-pent-1-ynyl)-2,6-dimethyl-7-oxo-1H-pyrrolo[2,3-c]pyridine-3-carboxylate], the IC50 in assay [1] was found to be 182 nM; in assay [2] it was 58.6 nM.

Turning to `CCOC(=O)c1c(C)[nH]c2c(=O)n(C)cc(C#CC(O)(CC)CC)c12` [Example 24, ethyl 4-(3-ethyl-3-hydroxy-pent-1-ynyl)-2,6-dimethyl-7-oxo-1H-pyrrolo[2,3-c]pyridine-3-carboxylate], the values for the IC50 in assay [1] and in assay [2] were 536 nM and 138 nM, respectively.

Regarding `CCOC(=O)c1c(C)[nH]c2c(=O)n(C)cc(C#CC(C)(C)OCc3ccccc3)c12` [Example 25, ethyl 4-(3-benzyloxy-3-methyl-but-1-ynyl)-2,6-dimethyl-7-oxo-1H-pyrrolo[2,3-c]pyridine-3-carboxylate], the IC50 amounted to 848 nM in assay [1] and 373 nM in assay [2].

Regarding `CCOC(=O)c1c(C)[nH]c2c(=O)n(C)cc(C#CC(C)(C)OC)c12` [Example 26, ethyl 4-(3-methoxy-3-methyl-but-1-ynyl)-2,6-dimethyl-7-oxo-1H-pyrrolo[2,3-c]pyridine-3-carboxylate], the IC50 came to 503 nM in assay [1] and 284 nM in assay [2].

Regarding `CCOC(=O)c1c(C)[nH]c2c(=O)n(C)cc(C#CC(C)(O)c3cccnc3)c12` (stereo not drawn) [Example 28, ethyl 4-[3-hydroxy-3-(3-pyridyl)but-1-ynyl]-2,6-dimethyl-7-oxo-1H-pyrrolo[2,3-c]pyridine-3-carboxylate], the IC50 was 234 nM in assay [1] and 52.5 nM in assay [2].

Turning to `CCOC(=O)c1c(C)[nH]c2c(=O)n(C)cc(C#CC3(O)COC3)c12` [Example 30, ethyl 4-[2-(3-hydroxyoxetan-3-yl)ethynyl]-2,6-dimethyl-7-oxo-1H-pyrrolo[2,3-c]pyridine-3-carboxylate], the IC50 worked out at 634 nM in assay [1] and 87.3 nM in assay [2].

Regarding `CCOC(=O)c1c(C)[nH]c2c(=O)n(C)cc(C#CC(C)(C)C(=O)NC)c12` [Example 32, ethyl 4-[3,3-dimethyl-4-(methylamino)-4-oxo-but-1-ynyl]-2,6-dimethyl-7-oxo-1H-pyrrolo[2,3-c]pyridine-3-carboxylate], the values for the IC50 in assay [1] and in assay [2] were 802 nM and 1320 nM, respectively.

With `CCOC(=O)c1c(C)[nH]c2c(=O)n(C)cc(C#CC(C)(O)c3cccc(F)c3)c12` (stereo not drawn) [Example 33, ethyl 4-[3-(3-fluorophenyl)-3-hydroxy-but-1-ynyl]-2,6-dimethyl-7-oxo-1H-pyrrolo[2,3-c]pyridine-3-carboxylate], the values for the IC50 in assay [1] and in assay [2] were 218 nM and 60 nM, respectively.

Regarding `CCOC(=O)c1c(C)[nH]c2c(=O)n(C)cc(C#CC(C)(O)CC#N)c12` (stereo not drawn) [Example 35, ethyl 4-(4-cyano-3-hydroxy-3-methyl-but-1-ynyl)-2,6-dimethyl-7-oxo-1H-pyrrolo[2,3-c]pyridine-3-carboxylate], the IC50 in assay [1] was 139 nM; in assay [2], 100 nM.

Take `CCOC(=O)c1c(C)[nH]c2c(=O)n(C)cc(C#CC(C)(C)C(=O)N(C)C)c12` [Example 36, ethyl 4-[4-(dimethylamino)-3,3-dimethyl-4-oxo-but-1-ynyl]-2,6-dimethyl-7-oxo-1H-pyrrolo[2,3-c]pyridine-3-carboxylate]: the IC50 in assay [1] is 1310 nM; in assay [2] it was 375 nM.

As for `CCOC(=O)c1c(C)[nH]c2c(=O)n(C)cc(C#CC(C)(C)C(N)=O)c12` [Example 37, ethyl 4-(4-amino-3,3-dimethyl-4-oxo-but-1-ynyl)-2,6-dimethyl-7-oxo-1H-pyrrolo[2,3-c]pyridine-3-carboxylate], the IC50 is 382 nM in assay [1] and 221 nM in assay [2].

With `CCOC(=O)c1c(C)[nH]c2c(=O)n(C)cc(C#CC(O)(c3cccc(N(C)C)c3)C(F)(F)F)c12` (stereo not drawn) [Example 39, ethyl 4-[3-[3-(dimethylamino)phenyl]-4,4,4-trifluoro-3-hydroxy-but-1-ynyl]-2,6-dimethyl-7-oxo-1H-pyrrolo[2,3-c]pyridine-3-carboxylate], the IC50 stood at 525 nM in assay [1] and 76.9 nM in assay [2].

Regarding `CCOC(=O)c1c(C)[nH]c2c(=O)n(C)cc(C#CC(O)(c3cccc(C#N)c3)C(F)(F)F)c12` (stereo not drawn) [Example 40, ethyl 4-(3-(3-cyanophenyl)-4,4,4-trifluoro-3-hydroxybut-1-yn-1-yl)-2,6-dimethyl-7-oxo-6,7-dihydro-1H-pyrrolo[2,3-c]pyridine-3-carboxylate], the IC50 turned out to be 355 nM in assay [1] and 69.2 nM in assay [2].

As to `CCOC(=O)c1c(C)[nH]c2c(=O)n(C)cc(C#CC(O)(c3cccc(-c4cn[nH]c4)c3)C(F)(F)F)c12` (stereo not drawn) [Example 41, ethyl 2,6-dimethyl-7-oxo-4-[4,4,4-trifluoro-3-hydroxy-3-[3-(1H-pyrazol-4-yl)phenyl]but-1-ynyl]-1H-pyrrolo[2,3-c]pyridine-3-carboxylate], the IC50 in assay [1] was found to be 171 nM; in assay [2], 21.5 nM.

Consider `CCOC(=O)c1c(C)[nH]c2c(=O)n(C)cc(C#CC(O)(c3ccn(C)n3)C(F)(F)F)c12` (stereo not drawn) [Example 42, ethyl 2,6-dimethyl-7-oxo-4-[4,4,4-trifluoro-3-hydroxy-3-(1-methylpyrazol-3-yl)but-1-ynyl]-1H-pyrrolo[2,3-c]pyridine-3-carboxylate], for which the IC50 in assay [1] amounted to 657 nM; in assay [2], 96.9 nM.

For the molecule `CCOC(=O)c1c(C)[nH]c2c(=O)n(C)cc(C#CC(O)(c3cccc(CO)c3)C(F)(F)F)c12` (stereo not drawn) [Example 43, ethyl 2,6-dimethyl-7-oxo-4-[4,4,4-trifluoro-3-hydroxy-3-[3-(hydroxymethyl)phenyl]but-1-ynyl]-1H-pyrrolo[2,3-c]pyridine-3-carboxylate], the IC50 in assay [1] was determined as 257 nM; in assay [2], 35.5 nM.

For orientation: IC50 means the concentration that inhibits the measured activity by half.
